Reference: patent US5281603A, “Angiotensin II receptor blocking 2,3,6 substituted quinazolinones” (American Cyanamid Company, priority 1993, dated 1994)

Molecular target: T1, Angiotensin II Receptor (Bos taurus, UniProt P25104)
T1 construct: The brownish tissue forming the adrenal cortex is scraped off and finely minced with scissors before homogenization; from tissue; host or cells: beef adrenal cortex, microsomal membranes (100,000×g pellet)
T1 sequence (P25104 1-359): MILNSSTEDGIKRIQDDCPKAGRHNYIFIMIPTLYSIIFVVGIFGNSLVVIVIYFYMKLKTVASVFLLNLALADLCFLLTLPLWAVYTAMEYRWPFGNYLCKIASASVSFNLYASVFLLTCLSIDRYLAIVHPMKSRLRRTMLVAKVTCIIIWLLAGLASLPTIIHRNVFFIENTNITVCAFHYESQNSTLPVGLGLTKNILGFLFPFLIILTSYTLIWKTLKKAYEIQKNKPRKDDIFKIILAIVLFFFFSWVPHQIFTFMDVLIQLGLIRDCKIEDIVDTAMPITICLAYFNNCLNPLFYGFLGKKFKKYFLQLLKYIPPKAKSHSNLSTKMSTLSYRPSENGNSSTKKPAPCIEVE
Assay: Angiotensin II Receptor Binding: displacement of [^125 I](Sar^1,Ile^8)AngII from beef adrenal cortex membranes
Parameters: species or system beef (bovine)
Settings: [^125 I](Sar^1,Ile^8)AngII, beef adrenal membranes, 60 min, room temperature
Excerpt: Beef adrenals are obtained from a local slaughter house (Maxwell-Cohen). [^125 I](Sar^1,Ile^8)AngII, S.A. 2200 Ci/mmole, is purchased from Dupont (NEN®, Boston, Mass.). All unlabeled AngII analogs, Dimethylsulfoxide (DMSO), nucleotides, bovine serum albumin (BSA) are purchased from Sigma Chemical Co., St. Louis, Mo. U.S.A.
Approximately sixteen (16) to twenty (20) beef adrenal glands are processed as follows: fresh adrenal glands received on crushed ice are cleaned of fatty tissues and the tough membranes encapsulating the glands are removed and discarded. The brownish tissue forming the adrenal cortex is scraped off and finely minced with scissors before homogenization. Care is taken to avoid contamination with medullary tissue during dissection. The scraped cortices are suspended in twenty volumes of an ice-cold buffer medium consisting of 10 mM Tris.HCl (pH 7.4 at 22° C.) and containing 1.0 mM EDTA and 0.2M sucrose. Unless otherwise indicated, all subsequent operations are done at 4° C. […] The homogenate is centrifuged first at low speed (3,000×g) for 10 min. […] This P2 pellet is discarded and the liquid phase is carefully decanted off in clean centrifuge tubes and recentrifuged at high speed (100,000×g) for 60 min. The translucent final pellet is harvested and combined in a small volume (20-50.0 ml) of 50.0 mM Tris.HCl buffer, pH 7.2. […] The pelleted membrane is reconstituted in 50.0 mM Tris.HCl buffer containing 0.1 mM of phenylmethylsulfonyl fluoride (PMSF) to give approximately a protein concentration of 2.5 mg per ml of tissue suspension. The membrane preparation is finally aliquoted in 1.0 ml volumes and stored at -70° C. until use in the binding assays. […]
The wells are left undisturbed for 60 min. at room temperature. […] The filters are removed from the filter grid and counted in a Parkard® Cobra Gamma Counter for 1 min. […] The binding data are analyzed by the non-linear interactive "LUNDON-1" program (LUNDON SOFTWARE Inc., Cleveland, Ohio U.S.A.).

| Compound | IC50 |
| --- | --- |
| CCCCc1nc2ccc(C3=NN[C@H]4C(=O)N(C)C(=O)[C@@H]34)cc2c(=O)n1Cc1ccc(-c2ccccc2-c2nnn[nH]2)cc1 (relative stereo) [Example 7] | 180 nM |
| CCCCc1nc2ccc([C@@]3(C)NN[C@@H]4C(=O)N(C)C(=O)[C@@H]43)cc2c(=O)n1Cc1ccc(-c2ccccc2-c2nnn[nH]2)cc1 (relative stereo) [Example 10, (3-alpha,3aalpha,6aalpha)-3-[2-butyl-3,4-dihydro-4-oxo-3-[[2'-(1H-tetrazol-5-yl)-[1,1'-biphenyl]-4-yl]methyl]-6-quinazolinyl]-2,3,3a,6a-tetrahydro-3,5-dimethyl-pyrrolo[3,4-c]pyrazole-4,6(1H,5H)-dione] | 880 nM |
